This is an account of results in ChEMBL document CHEMBL1150413, “A series of potent and selective, triazolylphenyl-based histone deacetylases inhibitors with activity against pancreatic cancer cells and Plasmodium falciparum” (J Med Chem, 2008).

The subject of experiment [1] is Plasmodium falciparum. The experiment is described as follows: microbe, parasite or virus in culture. The following applies: TM91C235.
Description: Antimalarial activity against Plasmodium falciparum TM91C235 by hypoxanthine uptake
The next experiment deals with BXPC-3. Put plainly: Cytotoxicity against human BxPC3 cells after 72 hrs by MTT assay. It counts as functional, cell-based. The following applies: BXPC-3, 72 h. (In general: Tetrazolium assays rely on reduction of a dye to a coloured formazan, in cell work by metabolically active cells.)
A short description of experiment [2]: Cytotoxicity against nontransformed human microvascular epithelial cells. It counts as ADME, cell-based. The following applies: Endothelial cell.
Another experiment deals with Histone deacetylase 1 (Homo sapiens, UniProt Q13547).
Histone deacetylase 1, sequence (Q13547 whole entry): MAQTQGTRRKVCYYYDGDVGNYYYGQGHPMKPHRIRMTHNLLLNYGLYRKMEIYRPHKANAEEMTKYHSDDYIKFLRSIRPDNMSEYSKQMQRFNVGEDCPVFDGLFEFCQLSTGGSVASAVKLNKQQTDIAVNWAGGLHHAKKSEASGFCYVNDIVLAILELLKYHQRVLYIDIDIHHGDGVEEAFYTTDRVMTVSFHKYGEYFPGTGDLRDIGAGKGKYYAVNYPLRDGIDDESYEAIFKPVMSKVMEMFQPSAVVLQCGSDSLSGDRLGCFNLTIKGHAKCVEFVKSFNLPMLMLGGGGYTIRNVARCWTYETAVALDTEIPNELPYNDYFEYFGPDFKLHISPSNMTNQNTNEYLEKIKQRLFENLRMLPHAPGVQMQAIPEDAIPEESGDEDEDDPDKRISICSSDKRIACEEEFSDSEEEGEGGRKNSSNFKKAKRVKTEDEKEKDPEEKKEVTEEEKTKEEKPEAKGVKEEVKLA
Experiment [3] has as its system Plasmodium falciparum. Put plainly: Antimalarial activity against Plasmodium falciparum D6 by hypoxanthine uptake. It is filed as functional, organism-based.
Experiment [4] addresses T1, Polyamine deacetylase HDAC10 (Homo sapiens, UniProt Q969S8).
T1 sequence (Q969S8 whole entry): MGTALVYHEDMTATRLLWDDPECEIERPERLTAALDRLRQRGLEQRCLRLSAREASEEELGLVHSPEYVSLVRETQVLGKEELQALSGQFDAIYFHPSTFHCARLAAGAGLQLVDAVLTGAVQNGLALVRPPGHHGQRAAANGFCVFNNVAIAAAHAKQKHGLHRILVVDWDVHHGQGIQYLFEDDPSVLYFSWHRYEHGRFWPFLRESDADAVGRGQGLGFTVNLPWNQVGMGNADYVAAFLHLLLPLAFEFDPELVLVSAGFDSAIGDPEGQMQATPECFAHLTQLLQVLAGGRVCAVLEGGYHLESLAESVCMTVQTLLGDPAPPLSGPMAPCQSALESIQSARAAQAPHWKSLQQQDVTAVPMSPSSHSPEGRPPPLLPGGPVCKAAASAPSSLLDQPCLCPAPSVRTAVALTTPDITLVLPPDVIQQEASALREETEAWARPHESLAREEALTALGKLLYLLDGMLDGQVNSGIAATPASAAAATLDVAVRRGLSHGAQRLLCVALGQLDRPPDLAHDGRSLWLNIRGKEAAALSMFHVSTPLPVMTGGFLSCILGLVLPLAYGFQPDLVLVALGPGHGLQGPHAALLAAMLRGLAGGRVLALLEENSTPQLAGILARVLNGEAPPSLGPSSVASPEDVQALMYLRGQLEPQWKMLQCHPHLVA

Experiment [5] can be described thus: Cytotoxicity against human Hup T3 cells after 72 hrs by MTT assay. The following applies: HuP-T3, 72 h. It counts as functional, cell-based.
The target of a further experiment is T2, Histone deacetylase 8 (Homo sapiens, UniProt Q9BY41).
T2 sequence (Q9BY41 whole entry): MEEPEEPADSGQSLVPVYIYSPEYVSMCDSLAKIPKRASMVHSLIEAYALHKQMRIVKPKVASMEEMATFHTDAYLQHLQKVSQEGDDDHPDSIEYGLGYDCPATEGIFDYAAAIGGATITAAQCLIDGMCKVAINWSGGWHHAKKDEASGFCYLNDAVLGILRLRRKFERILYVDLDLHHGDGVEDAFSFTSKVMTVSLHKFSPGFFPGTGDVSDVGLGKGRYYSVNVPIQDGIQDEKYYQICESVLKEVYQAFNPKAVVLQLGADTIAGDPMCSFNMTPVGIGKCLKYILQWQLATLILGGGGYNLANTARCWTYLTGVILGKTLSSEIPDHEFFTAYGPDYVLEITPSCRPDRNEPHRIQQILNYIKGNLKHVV

A further experiment deals with Histone deacetylase 3 (Homo sapiens, UniProt O15379).
Histone deacetylase 3, sequence (O15379 whole entry): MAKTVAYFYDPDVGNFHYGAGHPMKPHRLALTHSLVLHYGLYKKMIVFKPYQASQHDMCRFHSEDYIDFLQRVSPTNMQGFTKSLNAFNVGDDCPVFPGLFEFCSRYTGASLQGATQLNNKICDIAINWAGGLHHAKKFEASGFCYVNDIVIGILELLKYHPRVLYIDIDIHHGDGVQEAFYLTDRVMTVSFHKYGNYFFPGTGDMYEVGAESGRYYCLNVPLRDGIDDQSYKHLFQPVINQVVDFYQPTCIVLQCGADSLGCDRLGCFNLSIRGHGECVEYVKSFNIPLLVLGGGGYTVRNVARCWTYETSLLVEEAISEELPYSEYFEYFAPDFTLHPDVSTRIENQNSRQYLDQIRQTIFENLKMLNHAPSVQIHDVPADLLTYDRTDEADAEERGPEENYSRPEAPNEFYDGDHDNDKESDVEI
Experiment [6] relates to Plasmodium falciparum. The experiment is described as follows: Antimalarial activity against Plasmodium falciparum W2 by hypoxanthine uptake. It is filed as functional, organism-based.
Experiment [7] in a line: Selectivity for HDAC10 over HDAC1.
Experiment [8] in a line: Cytotoxicity against human HPDE6c7 cells. It is filed as ADME, cell-based.
Experiment [9] is described as follows: Cytotoxicity against human Panc 04.03 cells after 72 hrs by MTT assay. It counts as functional, cell-based. The following applies: Panc 04.03, 72 h.
Experiment [10] concerns Plasmodium falciparum. Put plainly: Antimalarial activity against Plasmodium falciparum TM90C2A by hypoxanthine uptake. It counts as functional, organism-based.
The target of experiment [11] is T3, Protein deacetylase HDAC6 (Homo sapiens, UniProt Q9UBN7).
T3 sequence (Q9UBN7 whole entry): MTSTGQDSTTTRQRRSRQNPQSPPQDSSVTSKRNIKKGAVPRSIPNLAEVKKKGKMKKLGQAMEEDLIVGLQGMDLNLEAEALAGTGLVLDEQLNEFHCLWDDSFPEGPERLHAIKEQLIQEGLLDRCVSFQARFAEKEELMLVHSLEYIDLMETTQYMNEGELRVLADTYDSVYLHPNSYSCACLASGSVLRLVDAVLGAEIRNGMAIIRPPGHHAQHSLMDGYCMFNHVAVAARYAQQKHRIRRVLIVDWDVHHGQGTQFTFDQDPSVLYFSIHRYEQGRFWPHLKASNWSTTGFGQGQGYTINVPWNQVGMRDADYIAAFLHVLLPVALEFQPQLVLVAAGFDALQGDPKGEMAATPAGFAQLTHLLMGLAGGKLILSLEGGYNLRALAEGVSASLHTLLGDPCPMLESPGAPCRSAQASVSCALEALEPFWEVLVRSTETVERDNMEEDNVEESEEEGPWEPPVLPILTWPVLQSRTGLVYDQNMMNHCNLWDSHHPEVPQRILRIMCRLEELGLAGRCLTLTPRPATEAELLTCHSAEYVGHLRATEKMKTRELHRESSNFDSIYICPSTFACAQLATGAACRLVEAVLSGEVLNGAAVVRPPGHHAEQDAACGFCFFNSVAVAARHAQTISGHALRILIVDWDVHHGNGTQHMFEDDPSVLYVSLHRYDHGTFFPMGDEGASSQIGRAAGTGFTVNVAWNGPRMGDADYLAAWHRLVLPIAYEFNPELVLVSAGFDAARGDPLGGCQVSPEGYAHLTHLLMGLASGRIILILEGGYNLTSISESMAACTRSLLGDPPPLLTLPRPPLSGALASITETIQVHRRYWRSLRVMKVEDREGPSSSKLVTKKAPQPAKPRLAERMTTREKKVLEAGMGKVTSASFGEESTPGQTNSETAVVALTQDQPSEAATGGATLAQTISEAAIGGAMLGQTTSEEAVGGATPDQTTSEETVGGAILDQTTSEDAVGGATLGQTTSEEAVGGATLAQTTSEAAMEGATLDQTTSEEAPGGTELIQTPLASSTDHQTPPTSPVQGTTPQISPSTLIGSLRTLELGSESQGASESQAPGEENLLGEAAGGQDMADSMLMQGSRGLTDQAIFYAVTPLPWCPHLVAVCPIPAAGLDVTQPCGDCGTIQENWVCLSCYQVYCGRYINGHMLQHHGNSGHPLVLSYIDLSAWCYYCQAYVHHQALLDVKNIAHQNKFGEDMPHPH

The next experiment concerns the target Histone deacetylase 2 (Homo sapiens, UniProt Q92769).
In another experiment the test system is MIA PaCa-2. The experiment is described as follows: Cytotoxicity against human Mia Paca2 cells after 72 hrs by MTT assay. It counts as functional, cell-based. The following applies: MIA PaCa-2, 72 h.
Experiment [12] can be described thus: Cytotoxicity against human SU 86.86 cells after 72 hrs by MTT assay. It is filed as functional, cell-based. The following applies: SU.86.86, 72 h.

For orientation: IC50 means the concentration needed to halve the response being measured. Lower therefore signals inhibition by little substance.

Histone deacetylase 2, sequence (Q92769 whole entry): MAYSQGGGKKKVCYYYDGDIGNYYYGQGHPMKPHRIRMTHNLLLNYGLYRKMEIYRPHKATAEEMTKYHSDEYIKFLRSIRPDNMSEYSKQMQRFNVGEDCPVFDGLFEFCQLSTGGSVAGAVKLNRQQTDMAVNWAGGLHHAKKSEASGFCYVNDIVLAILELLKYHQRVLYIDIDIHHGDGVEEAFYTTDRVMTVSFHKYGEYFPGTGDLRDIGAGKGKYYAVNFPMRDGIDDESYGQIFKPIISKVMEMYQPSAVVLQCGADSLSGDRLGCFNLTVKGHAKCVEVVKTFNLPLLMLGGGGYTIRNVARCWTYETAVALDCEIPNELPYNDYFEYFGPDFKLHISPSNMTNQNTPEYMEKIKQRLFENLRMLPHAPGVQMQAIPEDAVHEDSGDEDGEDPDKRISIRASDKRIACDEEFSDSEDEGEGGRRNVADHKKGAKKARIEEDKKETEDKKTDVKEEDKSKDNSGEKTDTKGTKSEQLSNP

As for `O=C(CCCCCCC(=O)Nc1cccc(-c2cn(Cc3ccc(F)cc3)nn2)c1)NO`, the half-inhibitory concentration (IC50) in the experiment with Plasmodium falciparum [1] is 280 nM; in the experiment on BXPC-3 it was 1000 nM; in experiment [2], < 1000 nM; against Histone deacetylase 1, 17.6 nM; in the experiment on Plasmodium falciparum [3] it was 180 nM; in [4], 34.3 nM. Further, the IC50 is 1000 nM in experiment [5]; 552 nM against Histone deacetylase 8; 4 nM against Histone deacetylase 3; 350 nM in the experiment on Plasmodium falciparum [6]; 500 nM in experiment [8]; 1000 nM in experiment [9]. In addition, the concentration for half-maximal inhibition (IC50) in the experiment on Plasmodium falciparum [10] worked out at 110 nM; in experiment [11], 2.6 nM; against Histone deacetylase 2, 77.4 nM; in the experiment with MIA PaCa-2, 300 nM; in experiment [12], 1000 nM. Further, the Ratio IC50 in experiment [7] turned out to be 0.5.

With `O=C(CCCCCCC(=O)Nc1cccc(-c2cn(-c3ccccc3)nn2)c1)NO`, the IC50 was 35 nM with Plasmodium falciparum [1]; < 1000 nM in experiment [2]; 18 nM against Histone deacetylase 1; 17 nM with Plasmodium falciparum [3]; 27.7 nM in experiment [4]; 2780 nM at Histone deacetylase 8. The IC50 in the experiment on Plasmodium falciparum [6] is 32 nM; in experiment [8] it was < 200 nM; in [9], < 500 nM; in the experiment on Plasmodium falciparum [10], 17 nM; in experiment [11] it was 9.6 nM; at Histone deacetylase 2, 63.9 nM.

`O=C(CCCCCCC(=O)Nc1ccc(-c2cn(-c3ccccc3)nn2)cc1)NO`: the half-maximal inhibitory concentration (IC50) with BXPC-3 amounted to 3000 nM; in [2] it was 1000 nM; on Histone deacetylase 1, 27.1 nM; in experiment [4], 36.1 nM; in experiment [5], 1000 nM; on Histone deacetylase 8, 1970 nM. Also, the IC50 on Histone deacetylase 3 was 8 nM; in experiment [8], 1000 nM; in [9] it was 1000 nM; in [11], 1.3 nM; on Histone deacetylase 2 it was 47.5 nM; with MIA PaCa-2 it was 400 nM. Also, the IC50 in experiment [12] came to 1000 nM. The Ratio IC50 in experiment [7] was 0.8.

On to `O=C(CCCCCCC(=O)Nc1cccc(-c2cn(CC(O)c3cccc(Br)c3)nn2)c1)NO` (stereo not drawn), for which the IC50 in the experiment with Plasmodium falciparum [1] stood at 260 nM; in the experiment with BXPC-3, 11000 nM; on Histone deacetylase 1, 14.9 nM; in the experiment on Plasmodium falciparum [3], 110 nM; in [4] it was 13 nM; in experiment [5] it was 11000 nM. In addition, the half-maximal inhibitory concentration (IC50) at Histone deacetylase 8 was determined as 440 nM; against Histone deacetylase 3 it was 2.7 nM; in the experiment on Plasmodium falciparum [6], 560 nM; in experiment [9], 14000 nM; with Plasmodium falciparum [10], 110 nM; in experiment [11] it was 1.9 nM. Besides, the IC50 amounted to 64.4 nM on Histone deacetylase 2, 800 nM in the experiment on MIA PaCa-2 and 12000 nM in experiment [12]. For the same compound, in [7], the Ratio IC50 was 1.1.

In the case of `O=C(CCCCCCC(=O)Nc1cccc(-c2cnnn2Cc2ccccc2)c1)NO`, the IC50 in the experiment on Plasmodium falciparum [1] stood at 370 nM; in the experiment on BXPC-3 it was 12000 nM; against Histone deacetylase 1, 18.6 nM; in the experiment on Plasmodium falciparum [3], 210 nM; in experiment [4] it was 19.2 nM; in experiment [5], 2000 nM. The half-inhibitory concentration (IC50) worked out at 433 nM at Histone deacetylase 8; 4.5 nM on Histone deacetylase 3; 600 nM with Plasmodium falciparum [6]; 4000 nM in experiment [9]; 150 nM in the experiment on Plasmodium falciparum [10]; 3.3 nM in experiment [11]. Further, the values for the IC50 (against Histone deacetylase 2; in the experiment on MIA PaCa-2; in experiment [12]) were 112 nM, 1000 nM and 7000 nM, respectively. For the same compound, the Ratio IC50 in experiment [7] amounted to 1.

In the case of `O=C(CCCCCCC(=O)Nc1cccc(-c2cnnn2-c2ccccc2)c1)NO`, the IC50 is 500 nM in the experiment on Plasmodium falciparum [1]; 10000 nM with BXPC-3; 33.4 nM on Histone deacetylase 1; 320 nM in the experiment with Plasmodium falciparum [3]; 24.5 nM in experiment [4]; 8000 nM in experiment [5]. The IC50 against Histone deacetylase 8 came to 942 nM; at Histone deacetylase 3 it was 7.7 nM; with Plasmodium falciparum [6] it was 730 nM; in experiment [9], 2000 nM; in the experiment with Plasmodium falciparum [10], 330 nM; in experiment [11], 7.5 nM. The IC50 on Histone deacetylase 2 was 167 nM; with MIA PaCa-2 it was 3000 nM; in [12], 4000 nM. Moreover, the Ratio IC50 in experiment [7] is 1.4.

Regarding `O=C(CCCCCCC(=O)Nc1cccc(-c2cnnn2Cc2ccc(F)cc2)c1)NO`, the concentration for half-maximal inhibition (IC50) in the experiment with Plasmodium falciparum [1] was found to be 460 nM; in the experiment with BXPC-3, 11000 nM; against Histone deacetylase 1, 25.9 nM; in the experiment with Plasmodium falciparum [3] it was 300 nM; in [4], 17.6 nM; in [5], 5000 nM. The half-inhibitory concentration (IC50) at Histone deacetylase 8 was 529 nM; against Histone deacetylase 3 it was 5.8 nM; in the experiment on Plasmodium falciparum [6], 590 nM; in [9] it was 9000 nM; with Plasmodium falciparum [10] it was 210 nM; in experiment [11], 3.8 nM. Moreover, the values for the IC50 (against Histone deacetylase 2; in the experiment with MIA PaCa-2; in experiment [12]) were 124 nM, 2000 nM and 8000 nM, respectively. In experiment [7], the Ratio IC50 was found to be 1.5.
